Paper PMC12367891, “Structure–metabolism relationships of 4-pentenyl synthetic cannabinoid receptor agonists using in vitro human hepatocyte incubations and high-resolution mass spectrometry” (Archives of Toxicology, 2025)

Tested on: pooled human hepatocytes
Experiment: Incubation with pooled human hepatocytes, metabolite identification by LC-QTOF-MS
Type: in vitro ADME
Conditions: 5 µM, HHeps, up to 3 h
Description: Incubations of the SCRAs with HHeps and subsequent metabolite identification were carried out as previously described in a published procedure, with slight modifications (Åstrand et al. [2019]; Stalberga et al. [2022]). To summarise, 5 µM of each SCRA was incubated with HHeps (100,000 cells) at 37 °C, 5% CO2 in a total volume of 100 μL of Williams E medium supplemented with L-glutamine and HEPES. Incubations were carried out in duplicate and quenched by the addition of 100 µL ice-cold acetonitrile at 0, 0.5, 1 and 3 h, after which the incubates were centrifuged at 1,100 × g for 15 min at 4 °C. The resulting supernatant was analysed by LC–QTOF-MS. On each day, negative controls (HHeps without drug) and degradation controls (drug without HHeps) were also incubated for 3 h.
Chromatographic separation was achieved using an Agilent 1290 Infinity ultra-high performance liquid chromatography (UHPLC) system (Agilent Technologies, Kista, Sweden); 4 µL supernatant was injected onto an Acquity HSS T3 column (150 × 2.1 mm, 1.8 μm) fitted with an Acquity VanGuard precolumn (Waters, Sollentuna, Sweden). Gradient elution was employed using 0.1% formic acid in water (A) and 0.1% formic acid in acetonitrile (B) mobile phases: 1% B (0–0.6 min); 1–20% B (0.6–0.7 min); 20–85% B (0.7–13 min); 85–95% B (13–15 min); 95% B (15–18 min); 95–1% B (18–18.1 min); 1% B (18.1–19 min), with a flow rate of 0.5 mL/min and column temperature of 60 °C. The UHPLC system was coupled to an Agilent 6550 iFunnel QTOF mass spectrometer (Agilent Technologies, Kista, Sweden) with a Dual Agilent Jet Stream electrospray ionisation (ESI) source. […]
To identify structure–metabolism relationships, the total proportion (%) that each type of biotransformation contributed to the summed abundance of metabolites (as measured by peak area) across the 0.5, 1 and 3 h incubations was determined. […]

SMILES	most abundant metabolite	abundances of metabolites relative to the parent compound
C=CCCCn1cc(C(=O)NC(C(=O)OC)C(C)(C)C)c2ccccc21 (stereo not drawn) [MDMB-4en-PICA]	ester hydrolysis metabolite	
C=CCCCn1nc(C(=O)NC(C(=O)OC)C(C)(C)C)c2ccccc21 (stereo not drawn) [MDMB-4en-PINACA, methyl 3,3-dimethyl-2-{[1-(pent-4-en-1-yl)-1H-indazole-3-carbonyl]amino}butanoate]	ester hydrolysis metabolite	
C=CCCCN1C(=O)/C(=N\NC(=O)c2ccccc2)c2ccccc21 [BZO-4en-POXIZID]		small relative to the parent compound
